Experimental data taken from ChEMBL document CHEMBL1124621, “Inhibition of mammalian folylpolyglutamate synthetase and human dihydrofolate reductase by 5,8-dideaza analogues of folic acid and aminopterin bearing a terminal L-ornithine” (J Med Chem, 1989).

Assays:
[1] = species: Sus scrofa; experiment: Maximal elimination rate of metabolism for hog liver folyl-poly-glutamate synthetase was evaluated; assay type: ADME; design: unit not given here; conditions: pig
[2] = tested on: folylpolyglutamate synthetase; experiment: (§1) Km for hog liver folyl-poly-glutamate synthetase was evaluated; assay type: ADME, Sus scrofa; conditions: pig, hog liver folylpolyglutamate synthetase
[3] = target: T1, Dihydrofolate reductase (Homo sapiens, UniProt P00374); experiment: Inhibition of human dihydrofolate reductase; conditions: read-out: I50
T1 sequence (P00374 whole entry): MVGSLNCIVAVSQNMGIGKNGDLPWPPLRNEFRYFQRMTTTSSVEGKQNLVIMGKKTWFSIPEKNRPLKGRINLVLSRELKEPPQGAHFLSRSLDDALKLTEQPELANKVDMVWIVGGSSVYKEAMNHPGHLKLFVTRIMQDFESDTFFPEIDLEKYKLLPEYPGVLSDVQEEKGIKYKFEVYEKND

[4] = species: Sus scrofa; experiment: as §1; assay type: ADME; conditions: pig

Vmax [1] | Km [2] [µM] | IC50 [3] [nM] | Km [4] [µM] | Structure (SMILES)
 |  | 430 |  | NCCCC(NC(=O)c1ccc(NCc2ccc3nc(N)[nH]c(=O)c3c2Cl)cc1)C(=O)O (stereo not drawn)
 |  | 530 |  | NCCCC(NC(=O)c1ccc(OCc2ccc3nc(N)nc(O)c3c2)cc1)C(=O)O (stereo not drawn)
57 | 0.2 |  |  | Nc1nc(N)c2c(Cl)c(CNc3ccc(C(=O)NC(CCC(=O)O)C(=O)O)cc3)ccc2n1 (stereo not drawn)
68 | 0.3 | 100 |  | Nc1nc(O)c2c(Cl)c(CNc3ccc(C(=O)NC(CCC(=O)O)C(=O)O)cc3)ccc2n1 (stereo not drawn)
 |  | 3 |  | NCCCC(NC(=O)c1ccc(NCc2ccc3nc(N)nc(N)c3c2Cl)cc1)C(=O)O (stereo not drawn)
 |  | 1500 |  | NCCCC(NC(=O)c1ccc(SCc2ccc3nc(N)[nH]c(=O)c3c2)cc1)C(=O)O (stereo not drawn)

More lines, now with the values behind:

Structure (SMILES) | Vmax [1] | Km [2] [µM] | IC50 [3] [nM] | Km [4] [µM]
Nc1nc(O)c2cc(CSc3ccc(C(=O)NC(CCC(=O)O)C(=O)O)cc3)ccc2n1 (stereo not drawn) | 33 | 15 |  | 
Nc1nc(O)c2cc(COc3ccc(C(=O)NC(CCC(=O)O)C(=O)O)cc3)ccc2n1 (stereo not drawn) | 25 | 22 |  | 
O=C(O)CCC(NC(=O)c1ccc(SCc2ccc3ncnc(O)c3c2)cc1)C(=O)O (stereo not drawn) | 50 | 8.1 |  | 
O=C(O)CCC(NC(=O)c1ccc(OCc2ccc3ncnc(O)c3c2)cc1)C(=O)O (stereo not drawn) | 95 | 35 |  | 
NCCCC(NC(=O)c1ccc(OCc2ccc3nc[nH]c(=O)c3c2)cc1)C(=O)O (stereo not drawn) |  |  | 3800 | 
NCCCC(NC(=O)c1ccc(SCc2ccc3ncnc(O)c3c2)cc1)C(=O)O (stereo not drawn) |  |  | 3800 | 
Nc1nc2ncc(CNc3ccc(C(=O)N[C@@H](CCC(=O)O)C(=O)O)cc3)nc2c(=O)[nH]1 (stereo in doubt; form 1) [FOLIC ACID] | 100 |  |  | 7.7
Nc1nc2ncc(CNc3ccc(C(=O)N[C@@H](CCC(=O)O)C(=O)O)cc3)nc2c(=O)[nH]1 (stereo in doubt; form 2) [FOLIC ACID] | 61 |  |  | 93
